Data published in ChEMBL document CHEMBL1128084, “A general method for synthesis of ether phospholipids with -linolenic acid and their properties” (Bioorg Med Chem Lett, 1995).

Assay: Inhibiting aggregation of rabbit platelet induced by platelet-activating factor
Conditions: Oryctolagus cuniculus; concentration not given here

CC/C=C/C/C=C/C/C=C/CCCCCCCCC(=O)O[C@@H](COCCCCCCCCCCCCCCCC)COP(=O)([O-])OCC[N+](C)(C)C
inhibition: 4.3%
